Literature values in patent US20070293529A1, “Tetrasubstituted ureas as modulators of 11-beta hydroxyl steroid dehydrogenase type 1” (priority 2006, published 2007).

How the values were obtained:
[1] = target: T1, 11βHSD1 in the eye (Homo sapiens, UniProt P28845); conditions: healthy volunteers, after seven days of carbenoxolone treatment
T1 construct: host or cells: endogenous enzyme in the eye (NPE cells) of the treated volunteers

[2] = test system: pancreatic islet cells of ob/ob mice
[3] = test system: primary hippocampal cells
[4] = target: T2, 11βHSD1 (Homo sapiens, UniProt P28845); conditions: two randomized, double-blind, placebo-controlled crossover studies
T2 construct: host or cells: endogenous enzyme of the treated subjects (brain)

[5] = test system: bone nodule formation

T1 sequence (P28845 whole entry): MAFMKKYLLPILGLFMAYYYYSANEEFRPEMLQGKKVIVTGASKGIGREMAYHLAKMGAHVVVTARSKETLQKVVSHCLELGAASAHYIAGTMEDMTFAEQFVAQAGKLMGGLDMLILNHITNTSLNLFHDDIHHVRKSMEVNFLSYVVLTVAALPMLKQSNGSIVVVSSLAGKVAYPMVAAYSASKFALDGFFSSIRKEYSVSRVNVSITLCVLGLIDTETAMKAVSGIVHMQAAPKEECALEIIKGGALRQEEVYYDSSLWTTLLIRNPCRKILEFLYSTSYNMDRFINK
T2 sequence (P28845 whole entry): as above

reduction of intra-ocular pressure (IOP) [1]: 18%
SMILES: CC1(C)[C@@H](OC(=O)CCC(=O)O)CC[C@]2(C)[C@H]3C(=O)C=C4[C@@H]5C[C@@](C)(C(=O)O)CC[C@]5(C)CC[C@@]4(C)[C@]3(C)CC[C@@H]12 [carbenoxolone]
glucose-stimulated insulin release [2]: improves glucose-stimulated insulin release
protection from glucocorticoid-mediated exacerbation of excitatory amino acid neurotoxicity [3]: protects the cells from glucocorticoid-mediated exacerbation of excitatory amino acid neurotoxicity
verbal fluency and verbal memory [4]: improved verbal fluency and verbal memory
negative effects of glucocorticoids on bone nodule formation [5]: attenuate the negative effects of glucocorticoids on bone nodule formation
